According to patent US11986450B2, “Methods and compositions for treating infection and inflammation with selenocyanate” (National Jewish Health, priority 2017, dated 2024):

What was measured:
[1] = test system: clinical isolate of M. abscessus; assay: NTM killing, exposure to GOX, LPO, SeCN components; type: cell-based; details: plated on LB agar immediately after mixing
Source text: FIGS. 24A and 24B show —SeCN-mediated killing of NTM requires LPO, but not GOX, while LPO/—SeCn has no effect upon B. Cepacia. […] All conditions with GOX also contained dextrose, the required substrate of GOX for H2O2 production.
Susceptibility of NTM species to both HOSCN- and HOSeCN-mediated killing. […] Given the shorter amount of time necessary for —SeCN-mediated killing of NTM compared to other bacteria species (FIGS. 24A and 24B), the possibility that the mechanism responsible for —SeCN-mediated killing of NTM was unique compared to —SCN-mediated killing of NTM and —SeCN-mediated killing of other species is determined. […] Since killing required LPO, the inventors believe that endogenous H2O2 production by NTM provided the H2O2 required for the generation of HOSeCN via LPO and —SeCN.

[2] = test system: Pseudomonas aeruginosa (PA) lung infection
Method: FIGS. 8A-8C. […] Wild type (WT) and beta-subunit of the epithelial Na(+) channel (βENaC) Tg Mice were nebulized with 0.5% ^−SCN twice-daily starting 24 hrs post infection. Mice were sacrificed 72 hrs post infection and lung burden of PA was assessed (FIG. 8A), BAL neutrophil counts (FIG. 8B), and BALF KC cytokine (IL-8 analog) levels determined (FIG. 8C).
The inventors have shown critical in vivo proof of principle with inhaled ^−SCN in PA-infected mice (Chandler, J. D., et al. (2015); Chandler, J. D., et al. (2013) Nebulized thiocyanate improves lung infection outcomes in mice. Br J Pharmacol 169, 1166-1177). […] Mice that overexpress a sodium channel, βENaC, have been developed that spontaneously develop lung inflammation and mucous obstructions similar to that reported in subjects with CF (Mall, M., et al. (2004) Increased airway epithelial Na+ absorption produces cystic fibrosis-like lung disease in mice. Nat Med 10, 487-493). This model is useful to differentiate the antimicrobial effect of an agent from its potential anti-inflammatory effects.

[3] = test system: macrophage (J774A.1.) cells; details: 100 μM HOCl, 400 μM SCN, 15 minutes, viability after 6 hrs
Method: Cells were exposed to 100 μM HOCl and/or 400 μM ^−SCN in PBS for 15 minutes, washed and then placed in fresh media for 6 hrs before viability assessment with flow cytometry (FIG. 7A).

[4] = test system: Human peripheral blood neutrophils activated with PMA; details: 20 ng/ml PMA, 200 μM thiocyanate
Method: Cytotoxicity was assessed by measuring lactate dehydrogenase (LDH) release.

[5] = aerosolized isotonic 0.5% (w/v) solution in PBS for 30 minutes
Method: Mice (C57B6) were exposed to an aerosolized isotonic 0.5% (w/v) ^−SCN solution in PBS for 30 minutes (0 hr) and ^−SCN levels in the ELF and serum were determined by HPLC-EC at various time points.

[6] = nebulized 0.5%, twice daily, started 1 day after infection, 72 hours

N#CS [SCN, thiocyanate]
Killing of NTM with LPO, without GOX [1]: did not kill NTM | BAL neutrophil cell counts ([2]; mouse, in vivo): decreased | Lung CFU PA burden ([2]; mouse, in vivo): lower lung CFU PA burden | BAL levels of KC (IL-8 analog) [2, 6]: decreased | Body weight loss [2, 6]: less body weight loss | Lung pyocyanin levels [2, 6]: decreased lung pyocyanin levels | Protection from HOCl-mediated necrosis [3]: protects macrophage (J774A.1.) cells from HOCl-mediated necrosis | Cytoprotection in activated neutrophils [4]: cytoprotective | ELF SCN levels [5]: high ELF ^−SCN levels | Tolerability of inhaled SCN [5]: well tolerated
